# Assay results published in patent US20180256673A1, “METHODS FOR TREATING FUNGAL INFECTIONS” (priority 2015, published 2018).
# Like-named read-outs stand apart in the source and are kept apart here.
# Columns and labels:
# Test in all cases: Susceptibility testing of VVC clinical isolates at pH 7 and 4 (CLSI M27-A3)
# [1] = test system: C. albicans vaginal isolates; format: cell-based, Candida albicans; details: for MIC / MIC90: Candida albicans; for MIC: read-out: MIC; for MIC90: 60 isolates, read-out: MIC90
# [2] = test system: C. parapsilosis vaginal isolates; format: cell-based, Candida parapsilosis; details: 14 isolates, read-out: MIC90
# [3] = test system: C. tropicalis vaginal isolates; format: cell-based; details: Candida tropicalis, 13 isolates, read-out: MIC90
# [4] = test system: C. glabrata vaginal isolates; format: cell-based, Candida glabrata; details: for Number of isolates at MIC 0.03 μg/mL / Number of isolates at MIC 0.06 μg/mL / Number of isolates at MIC 0.25 μg/mL / Number of isolates at MIC 0.5 μg/mL / Number of isolates at MIC 1 μg/mL / Number of isolates at MIC 2 μg/mL / Number of isolates at MIC 0.125 μg/mL / Number of isolates at MIC 4 μg/mL / Number of isolates at MIC ≥4 μg/mL: 21 VVC isolates; for MIC90: Nakaseomyces glabratus, 21 isolates, read-out: MIC90
smiles,measurement,setting,value
"CCC(C)n1ncn(-c2ccc(N3CCN(c4ccc(OCC5COC(Cn6cncn6)(c6ccc(Cl)cc6Cl)O5)cc4)CC3)cc2)c1=O (centres unmarked) [ITR, itraconazole]",Number of isolates at MIC 0.008 μg/mL,"[1]; 60 VVC isolates, 24 h, pH 4",8
same,Number of isolates at MIC 0.03 μg/mL,"[1]; 60 VVC isolates, 24 h, pH 4",13
same,Number of isolates at MIC 0.06 μg/mL,"[1]; 60 VVC isolates, 24 h, pH 4",8
same,Number of isolates at MIC 0.125 μg/mL,"[1]; 60 VVC isolates, 24 h, pH 4",2
same,Number of isolates at MIC 0.25 μg/mL,"[1]; 60 VVC isolates, 24 h, pH 4",2
same,Number of isolates at MIC 0.5 μg/mL,"[1]; 60 VVC isolates, 24 h, pH 4",2
same,Number of isolates at MIC 2 μg/mL,"[1]; 60 VVC isolates, 24 h, pH 4",1
same,Number of isolates at MIC […],"[1]; 60 VVC isolates, 24 h, pH 4",24
same,Number of isolates at MIC 0.008 μg/mL,"[1]; 60 VVC isolates, 24 h, pH 7",21
same,Number of isolates at MIC 0.03 μg/mL,"[1]; 60 VVC isolates, 24 h, pH 7",9
same,Number of isolates at MIC 0.06 μg/mL,"[1]; 60 VVC isolates, 24 h, pH 7",3
same,Number of isolates at MIC 0.25 μg/mL,"[1]; 60 VVC isolates, 24 h, pH 7",2
same,Number of isolates at MIC 0.5 μg/mL,"[1]; 60 VVC isolates, 24 h, pH 7",2
same,Number of isolates at MIC 2 μg/mL,"[1]; 60 VVC isolates, 24 h, pH 7",1
same,Number of isolates at MIC […],"[1]; 60 VVC isolates, 24 h, pH 7",20
same,Number of isolates at MIC 0.03 μg/mL,"[1]; 60 VVC isolates, 48 h, pH 4",23
same,Number of isolates at MIC 0.06 μg/mL,"[1]; 60 VVC isolates, 48 h, pH 4",10
same,Number of isolates at MIC 0.125 μg/mL,"[1]; 60 VVC isolates, 48 h, pH 4",6
same,Number of isolates at MIC 0.25 μg/mL,"[1]; 60 VVC isolates, 48 h, pH 4",3
same,Number of isolates at MIC 0.5 μg/mL,"[1]; 60 VVC isolates, 48 h, pH 4",3
same,Number of isolates at MIC 1 μg/mL,"[1]; 60 VVC isolates, 48 h, pH 4",1
same,Number of isolates at MIC […],"[1]; 60 VVC isolates, 48 h, pH 4",10
same,Number of isolates at MIC ≥4 μg/mL,"[1]; 60 VVC isolates, 48 h, pH 4",4
same,Number of isolates at MIC 0.008 μg/mL,"[1]; 60 VVC isolates, 48 h, pH 7",6
same,Number of isolates at MIC 0.03 μg/mL,"[1]; 60 VVC isolates, 48 h, pH 7",8
same,Number of isolates at MIC 0.125 μg/mL,"[1]; 60 VVC isolates, 48 h, pH 7",6
same,Number of isolates at MIC 0.25 μg/mL,"[1]; 60 VVC isolates, 48 h, pH 7",2
same,Number of isolates at MIC 0.5 μg/mL,"[1]; 60 VVC isolates, 48 h, pH 7",2
same,Number of isolates at MIC 2 μg/mL,"[1]; 60 VVC isolates, 48 h, pH 7",1
same,Number of isolates at MIC […],"[1]; 60 VVC isolates, 48 h, pH 7",34
same,Number of isolates at MIC ≥4 μg/mL,"[1]; 60 VVC isolates, 48 h, pH 7",1
same,MIC,"[1]; 48 h, pH 4, fluconazole-resistant isolate 1, pH 4, 48 h",0.125 µg/mL
same,MIC,"[1]; 48 h, pH 4, fluconazole-resistant isolate 2, pH 4, 48 h",0.25 µg/mL
same,MIC,"[1]; 48 h, pH 4, fluconazole-resistant isolate 3, pH 4, 48 h",0.5 µg/mL
same,MIC,"[1]; 48 h, pH 4, fluconazole-resistant isolate 4, pH 4, 48 h",0.125 µg/mL
same,MIC,"[1]; 48 h, pH 4, fluconazole-resistant isolate 5, pH 4, 48 h",> 4 µg/mL
same,MIC,"[1]; 48 h, pH 4, fluconazole-resistant isolate 6, pH 4, 48 h",> 4 µg/mL
same,MIC,"[1]; 48 h, pH 4, fluconazole-resistant isolate 7, pH 4, 48 h",0.5 µg/mL
same,MIC,"[1]; 48 h, pH 4, fluconazole-resistant isolate 8, pH 4, 48 h",> 4 µg/mL
same,MIC,"[1]; 48 h, pH 4, fluconazole-resistant isolate 9, pH 4, 48 h",> 4 µg/mL
same,MIC,"[1]; 48 h, pH 4, fluconazole-resistant isolate 10, pH 4, 48 h",0.25 µg/mL
same,MIC,"[1]; 48 h, pH 7, fluconazole-resistant isolate 1, pH 7, 48 h",0.125 µg/mL
same,MIC,"[1]; 48 h, pH 7, fluconazole-resistant isolate 2, pH 7, 48 h",0.25 µg/mL
same,MIC,"[1]; 48 h, pH 7, fluconazole-resistant isolate 3, pH 7, 48 h",0.5 µg/mL
same,MIC,"[1]; 48 h, pH 7, fluconazole-resistant isolate 4, pH 7, 48 h",0.03 µg/mL
same,MIC,"[1]; 48 h, pH 7, fluconazole-resistant isolate 5, pH 7, 48 h",0.25 µg/mL
same,MIC,"[1]; 48 h, pH 7, fluconazole-resistant isolate 6, pH 7, 48 h",0.016 µg/mL
same,MIC,"[1]; 48 h, pH 7, fluconazole-resistant isolate 7, pH 7, 48 h",0.5 µg/mL
same,MIC,"[1]; 48 h, pH 7, fluconazole-resistant isolate 8, pH 7, 48 h",2 µg/mL
same,MIC,"[1]; 48 h, pH 7, fluconazole-resistant isolate 9, pH 7, 48 h",> 4 µg/mL
same,MIC,"[1]; 48 h, pH 7, fluconazole-resistant isolate 10, pH 7, 48 h",0.125 µg/mL
same,MIC90,"[1]; pH 4, 24 h",0.125 µg/mL
same,MIC90,"[1]; pH 4, 48 h",5 µg/mL
same,MIC90,"[1]; pH 7, 24 h",0.06 µg/mL
same,MIC90,"[1]; pH 7, 48 h",0.125 µg/mL
same,MIC90,"[2]; pH 4, 24 h",0.016 µg/mL
same,MIC90,"[2]; pH 4, 48 h",0.125 µg/mL
same,MIC90,"[2]; pH 7, 24 h",0.03 µg/mL
same,MIC90,"[2]; pH 7, 48 h",0.125 µg/mL
same,MIC90,"[3]; pH 4, 24 h",0.125 µg/mL
same,MIC90,"[3]; pH 4, 48 h",0.5 µg/mL
same,MIC90,"[3]; pH 7, 24 h",0.125 µg/mL
same,MIC90,"[3]; pH 7, 48 h",0.5 µg/mL
same,Number of isolates at MIC 0.03 μg/mL,"[4]; 24 h, pH 4",1
same,Number of isolates at MIC 0.06 μg/mL,"[4]; 24 h, pH 4",2
same,Number of isolates at MIC 0.25 μg/mL,"[4]; 24 h, pH 4",2
same,Number of isolates at MIC 0.5 μg/mL,"[4]; 24 h, pH 4",9
same,Number of isolates at MIC 1 μg/mL,"[4]; 24 h, pH 4",6
same,Number of isolates at MIC 2 μg/mL,"[4]; 24 h, pH 4",1
same,Number of isolates at MIC 0.03 μg/mL,"[4]; 24 h, pH 7",4
same,Number of isolates at MIC 0.06 μg/mL,"[4]; 24 h, pH 7",2
same,Number of isolates at MIC 0.125 μg/mL,"[4]; 24 h, pH 7",6
same,Number of isolates at MIC 0.25 μg/mL,"[4]; 24 h, pH 7",3
same,Number of isolates at MIC 0.5 μg/mL,"[4]; 24 h, pH 7",3
same,Number of isolates at MIC 1 μg/mL,"[4]; 24 h, pH 7",2
same,Number of isolates at MIC 4 μg/mL,"[4]; 24 h, pH 7",1
same,Number of isolates at MIC 0.03 μg/mL,"[4]; 48 h, pH 4",1
same,Number of isolates at MIC 0.06 μg/mL,"[4]; 48 h, pH 4",1
same,Number of isolates at MIC 0.125 μg/mL,"[4]; 48 h, pH 4",1
same,Number of isolates at MIC 0.5 μg/mL,"[4]; 48 h, pH 4",2
same,Number of isolates at MIC 1 μg/mL,"[4]; 48 h, pH 4",4
same,Number of isolates at MIC 2 μg/mL,"[4]; 48 h, pH 4",2
same,Number of isolates at MIC 4 μg/mL,"[4]; 48 h, pH 4",2
same,Number of isolates at MIC ≥4 μg/mL,"[4]; 48 h, pH 4",8
same,Number of isolates at MIC 0.03 μg/mL,"[4]; 48 h, pH 7",1
same,Number of isolates at MIC 0.06 μg/mL,"[4]; 48 h, pH 7",1
same,Number of isolates at MIC 0.125 μg/mL,"[4]; 48 h, pH 7",1
same,Number of isolates at MIC 0.25 μg/mL,"[4]; 48 h, pH 7",5
same,Number of isolates at MIC 0.5 μg/mL,"[4]; 48 h, pH 7",8
same,Number of isolates at MIC 2 μg/mL,"[4]; 48 h, pH 7",2
same,Number of isolates at MIC ≥4 μg/mL,"[4]; 48 h, pH 7",3
same,MIC90,"[4]; pH 4, 24 h",1 µg/mL
same,MIC90,"[4]; pH 4, 48 h",> 4 µg/mL
same,MIC90,"[4]; pH 7, 24 h",1 µg/mL
same,MIC90,"[4]; pH 7, 48 h",> 4 µg/mL
